# Test results published in US8143408B2, “N-(8-heteroaryltetrahydronaphtalene-2yl) or N-(5-heteroarylchromane-3-yl) carboxamide derivatives for the treatment of pain” (AstraZeneca AB, priority 2007, dated 2012).
# pIC50: −log10 of the molar value.
# Target: T1, Nav1.7 voltage-gated sodium channel (Homo sapiens, UniProt Q15858)
# T1 construct: Gene(s) encoding the full-length protein of the voltage-gated sodium channel of interest are cloned and expressed; expressed in transfected cells
# Assay: Whole-cell voltage clamp electrophysiology assay
# Assay type: cell-based
# Details: cells stably expressing the voltage-gated sodium channel of interest
# Text: Gene(s) encoding the full-length protein of the voltage-gated sodium channel of interest are cloned and expressed under a suitable promoter in a suitable cell line, as well known in the art. […] Suitable screening assays are as follows.
# Electrophysiological studies can be performed using automated patch-clamp electrophysiology platforms, like IonWorks HT, IonWorks Quattro, PatchXpress, QPatch or any other suitable platform. […] Suitable extracellular and intracellular buffer for such experiments are applied according to the instructions given by the manufacturer of the automated patch-clamp platforms. Cells that express the voltage-gated sodium channel protein of interest are exposed to drugs through the pipetting system integrated in the platforms. A suitable voltage stimulus protocol is used to activate the voltage-gated sodium channel proteins of interest through depolarisation from a defined holding potential.
# Electrophysiological studies can also be performed using the whole cell configuration of the standard patch clamp technique. In this assay, cells that express the voltage-gated sodium channel protein of interest are exposed to the drugs by conventional microperfusion systems and a suitable voltage stimulus protocol is used to activate the voltage-gated sodium channels.
# T1 sequence (Q15858 whole entry): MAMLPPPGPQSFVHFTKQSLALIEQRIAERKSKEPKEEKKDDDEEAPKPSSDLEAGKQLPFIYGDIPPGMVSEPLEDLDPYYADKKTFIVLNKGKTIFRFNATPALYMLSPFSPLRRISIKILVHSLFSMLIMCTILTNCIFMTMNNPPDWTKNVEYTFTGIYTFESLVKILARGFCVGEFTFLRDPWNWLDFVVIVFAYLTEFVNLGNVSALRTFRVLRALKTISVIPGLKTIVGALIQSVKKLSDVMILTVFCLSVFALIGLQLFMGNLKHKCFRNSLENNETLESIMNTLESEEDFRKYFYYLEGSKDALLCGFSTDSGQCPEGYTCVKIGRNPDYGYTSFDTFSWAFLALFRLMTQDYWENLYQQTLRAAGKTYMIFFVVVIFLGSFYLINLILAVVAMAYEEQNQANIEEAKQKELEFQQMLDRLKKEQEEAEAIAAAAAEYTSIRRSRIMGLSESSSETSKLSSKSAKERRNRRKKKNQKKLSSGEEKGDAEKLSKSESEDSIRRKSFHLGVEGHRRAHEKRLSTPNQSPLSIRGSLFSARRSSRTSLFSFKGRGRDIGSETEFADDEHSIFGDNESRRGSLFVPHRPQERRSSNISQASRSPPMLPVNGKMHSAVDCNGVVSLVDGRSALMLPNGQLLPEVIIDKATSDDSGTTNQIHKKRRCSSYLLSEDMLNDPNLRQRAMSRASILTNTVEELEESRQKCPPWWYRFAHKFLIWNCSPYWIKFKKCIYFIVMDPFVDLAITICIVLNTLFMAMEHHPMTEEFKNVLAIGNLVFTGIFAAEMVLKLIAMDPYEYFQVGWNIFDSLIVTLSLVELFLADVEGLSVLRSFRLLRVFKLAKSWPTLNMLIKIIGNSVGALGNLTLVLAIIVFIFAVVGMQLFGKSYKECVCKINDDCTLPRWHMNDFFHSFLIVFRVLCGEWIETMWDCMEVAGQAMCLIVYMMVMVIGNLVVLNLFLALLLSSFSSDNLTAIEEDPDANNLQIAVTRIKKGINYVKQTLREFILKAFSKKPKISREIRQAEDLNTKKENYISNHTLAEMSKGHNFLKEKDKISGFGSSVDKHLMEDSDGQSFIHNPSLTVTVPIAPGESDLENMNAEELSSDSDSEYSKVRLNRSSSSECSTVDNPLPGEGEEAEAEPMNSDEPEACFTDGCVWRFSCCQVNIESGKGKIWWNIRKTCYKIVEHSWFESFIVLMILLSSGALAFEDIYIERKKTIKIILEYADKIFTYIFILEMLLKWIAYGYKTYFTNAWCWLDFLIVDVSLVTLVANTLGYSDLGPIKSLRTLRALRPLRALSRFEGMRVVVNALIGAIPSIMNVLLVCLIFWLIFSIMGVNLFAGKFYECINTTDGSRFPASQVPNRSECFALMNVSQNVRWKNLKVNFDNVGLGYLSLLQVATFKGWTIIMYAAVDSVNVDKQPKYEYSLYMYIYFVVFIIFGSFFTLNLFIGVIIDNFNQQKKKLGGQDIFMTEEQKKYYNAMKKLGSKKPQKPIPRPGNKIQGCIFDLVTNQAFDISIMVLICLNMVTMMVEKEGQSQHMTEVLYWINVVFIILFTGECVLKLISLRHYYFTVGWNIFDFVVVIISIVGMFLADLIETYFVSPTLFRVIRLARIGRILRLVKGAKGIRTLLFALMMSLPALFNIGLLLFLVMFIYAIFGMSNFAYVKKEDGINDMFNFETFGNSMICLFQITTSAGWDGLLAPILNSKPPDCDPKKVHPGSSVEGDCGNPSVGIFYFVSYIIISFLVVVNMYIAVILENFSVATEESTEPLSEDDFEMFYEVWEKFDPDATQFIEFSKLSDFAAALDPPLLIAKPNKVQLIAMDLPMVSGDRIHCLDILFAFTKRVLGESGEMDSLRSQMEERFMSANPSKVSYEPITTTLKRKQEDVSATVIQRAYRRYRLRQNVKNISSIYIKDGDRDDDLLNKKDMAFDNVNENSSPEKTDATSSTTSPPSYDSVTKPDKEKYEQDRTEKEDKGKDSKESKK
row,pIC50,SMILES
1,6.40,"O=C(N[C@@H]1COc2cccc(-c3ccncc3)c2C1)c1ccc(OC(F)(F)F)cc1 [Example 1, N-[(3S)-5-Pyridin-4-yl-3,4-dihydro-2H-chromen-3-yl]-4-(trifluoromethoxy)-benzamide]"
2,5.80,"O=C(N[C@@H]1COc2cccc(-c3ccccn3)c2C1)c1ccc(OC(F)(F)F)cc1 [Example 5, N-[(3S)-5-Pyridin-2-yl-3,4-dihydro-2H-chromen-3-yl]-4-(trifluoromethoxy)-benzamide]"
3,6.00,"Cn1cc(-c2cccc3c2C[C@H](NC(=O)c2ccc(OC(F)(F)F)cc2)CC3)cn1 [Example 6, N-[(2R)-8-(1-Methyl-1H-pyrazol-4-yl)-1,2,3,4-tetrahydronaphthalen-2-yl]-4-(trifluoromethoxy)-benzamide]"
4,7.00,"O=C(N[C@@H]1COc2cccc(-c3ccncc3)c2C1)c1ccc(OCC(F)(F)F)nc1 [Example 18, N-[(3S)-5-pyridin-4-yl-3,4-dihydro-2H-chromen-3-yl]-6-(2,2,2-trifluoroethoxy)nicotinamide]"
5,7.10,"O=C(N[C@@H]1COc2cccc(-c3ccncc3)c2C1)c1ccc(OCCC(F)(F)F)nc1 [Example 19, N-[(3S)-5-pyridin-4-yl-3,4-dihydro-2H-chromen-3-yl]-6-(3,3,3-trifluoropropoxy)nicotin-amide]"
6,6.80,"CC(C)Oc1ccc(C(=O)N[C@@H]2COc3cccc(-c4ccncc4)c3C2)cn1 [Example 20, 6-isopropoxy-N-[(3S)-5-pyridin-4-yl-3,4-dihydro-2H-chromen-3-yl]nicotin-amide]"
7,5.20,"COc1ccc(C(=O)N[C@@H]2COc3cccc(-c4ccncc4)c3C2)c(OC)c1 [Example 22, 2,4-dimethoxy-N-[(3S)-5-pyridin-4-yl-3,4-dihydro-2H-chromen-3-yl]benzamide]"
8,5.70,"CCOc1ccc(C(=O)N[C@@H]2COc3cccc(-c4ccncc4)c3C2)cn1 [Example 25, 6-ethoxy-N-[(3S)-5-pyridin-4-yl-3,4-dihydro-2H-chromen-3-yl]nicotin-amide]"
9,6.20,"O=C(N[C@@H]1COc2cccc(-c3ccncc3)c2C1)c1ccc(OCC(F)F)nc1 [Example 26, 6-(2,2-difluoroethoxy)-N-[(3S)-5-pyridin-4-yl-3,4-dihydro-2H-chromen-3-yl]nicotin-amide]"
10,6.20,"O=C(N[C@@H]1COc2cccc(-c3ccncc3)c2C1)c1ccc(OC(CF)CF)nc1 [Example 27, 6-[2-fluoro-1-(fluoromethyl)ethoxy]-N-[(3S)-5-pyridin-4-yl-3,4-dihydro-2H-chromen-3-yl]nicotin-amide]"

# Second part, the molecule before the results:
row,SMILES,pIC50
1,"CCCCOc1ccc(C(=O)N[C@@H]2COc3cccc(-c4ccncc4)c3C2)cc1 [Example 2, 4-Butoxy-N-[(3S)-5-pyridin-4-yl-3,4-dihydro-2H-chromen-3-yl]benzamide]",6.90
2,"O=C(N[C@@H]1CCc2cccc(-c3ccncc3)c2C1)c1ccc(OS(=O)(=O)C(F)(F)F)cc1 [Example 3, 4-{[(2R)-8-Pyridin-4-yl-1,2,3,4-tetrahydronaphthalen-2-yl]carbamoyl}phenyl trifluoromethanesulfonate]",6.60
3,"Cn1cc(-c2cccc3c2C[C@H](NC(=O)c2ccc(OS(=O)(=O)C(F)(F)F)cc2)CC3)cn1 [Example 7, 4-{[(2R)-8-(1-Methyl-1H-pyrazol-4-yl)-1,2,3,4-tetrahydronaphthalen-2-yl]carbamoyl}phenyl trifluoromethanesulfonate]",6.70
4,"Cc1nn(-c2ccccc2)nc1C(=O)N[C@@H]1CCc2cccc(-c3cnn(C)c3)c2C1 [Example 8, 5-Methyl-N-[(2R)-8-(1-methyl-1H-pyrazol-4-yl)-1,2,3,4-tetrahydronaphthalen-2-yl]-2-phenyl-2H-1,2,3-triazole-4-carboxamide]",5.80
5,"Cc1n[nH]c(C)c1-c1cccc2c1C[C@H](NC(=O)c1ccc(OC(F)(F)F)cc1)CC2 [Example 9, N-[(2R)-8-(3,5-Dimethyl-1H-pyrazol-4-yl)-1,2,3,4-tetrahydronaphthalen-2-yl]-4-(trifluoromethoxy)-benzamide]",5.20
6,"Cc1noc(C)c1-c1cccc2c1C[C@H](NC(=O)c1ccc(OC(F)(F)F)cc1)CC2 [Example 10, N-[(2R)-8-(3,5-Dimethylisoxazol-4-yl)-1,2,3,4-tetrahydronaphthalen-2-yl]-4-(trifluoromethoxy)-benzamide]",5.40
7,"Cc1noc(C)c1-c1cccc2c1C[C@H](NC(=O)c1ccc(OS(=O)(=O)C(F)(F)F)cc1)CC2 [Example 11, 4-{[(2R)-8-(3,5-Dimethylisoxazol-4-yl)-1,2,3,4-tetrahydronaphthalen-2-yl]carbamoyl}phenyl trifluoromethanesulfonate]",6.20
8,"O=C(N[C@@H]1CCc2cccc(-c3ccncc3)c2C1)c1ccc(OCC(F)(F)F)nc1 [Example 12, N-[(2R)-8-pyridin-4-yl-1,2,3,4-tetrahydronaphthalen-2-yl]-6-(2,2,2-trifluoroethoxy)nicotinamide]",7.20
9,"O=C(N[C@@H]1CCc2cccc(-c3ccncc3)c2C1)c1ccc(OCCC(F)(F)F)nc1 [Example 13, N-[(2R)-8-pyridin-4-yl-1,2,3,4-tetrahydronaphthalen-2-yl]-6-(3,3,3-trifluoropropoxy)nicotinamide]",7.40
10,"CC(C)Oc1ccc(C(=O)N[C@@H]2CCc3cccc(-c4ccncc4)c3C2)cn1 [Example 14, 6-isopropoxy-N-[(2R)-8-pyridin-4-yl-1,2,3,4-tetrahydronaphthalen-2-yl]nicotin-amide]",6.60
11,"O=C(N[C@@H]1CCc2cccc(-c3ccncc3)c2C1)c1ccc(OC2CCCC2)nc1 [Example 15, 6-(cyclopentyloxy)-N-[(2R)-8-pyridin-4-yl-1,2,3,4-tetrahydronaphthalen-2-yl]nicotin-amide]",7.60
12,"COc1ccc(C(=O)N[C@@H]2CCc3cccc(-c4ccncc4)c3C2)c(OC)c1 [Example 16, 2,4-dimethoxy-N-[(2R)-8-pyridin-4-yl-1,2,3,4-tetrahydronaphthalen-2-yl]-benzamide]",5.70
13,"Cc1nn(-c2ccccc2)nc1C(=O)N[C@@H]1CCc2cccc(-c3ccncc3)c2C1 [Example 17, 5-methyl-2-phenyl-N-[(2R)-8-pyridin-4-yl-1,2,3,4-tetrahydronaphthalen-2-yl]-2H-1,2,3-triazole-4-carboxamide]",5.40
14,"O=C(N[C@@H]1COc2cccc(-c3ccncc3)c2C1)c1ccc(OC2CCCC2)nc1 [Example 21, 6-(cyclopentyloxy)-N-[(3S)-5-pyridin-4-yl-3,4-dihydro-2H-chromen-3-yl]nicotin-amide]",7.20
15,"Cc1nn(-c2ccccc2)nc1C(=O)N[C@@H]1COc2cccc(-c3ccncc3)c2C1 [Example 23, 5-methyl-2-phenyl-N-[(3S)-5-pyridin-4-yl-3,4-dihydro-2H-chromen-3-yl]-2H-1,2,3-triazole-4-carboxamide]",5.90
16,"CC(C)COc1ccc(C(=O)N[C@@H]2COc3cccc(-c4ccncc4)c3C2)cn1 [Example 24, 6-isobutoxy-N-[(3S)-5-pyridin-4-yl-3,4-dihydro-2H-chromen-3-yl]nicotin-amide]",6.90
17,"O=C(N[C@@H]1COc2cccc(-c3ccncc3)c2C1)c1cnc(OC2CCCC2)nc1 [Example 28, 2-(cyclopentyloxy)-N-[(3S)-5-pyridin-4-yl-3,4-dihydro-2H-chromen-3-yl]Pyrimidine-5-carboxamide]",7.00
